# According to ChEMBL document CHEMBL3430912, “GSK Tres Cantos Anti-Kinetoplastid Screening (TCAKS) Data”:
# Assays:
# Trypanosoma cruzi [1] = experiment: GSK_TCAKS: pIC50 Trypanosoma cruzi viability assay using beta-GAL activity. This assay was run at single shot at 5uM compound concentration per well. The biological reagents consisted of NIH-3T3 host cells and trypomastigotes parasitic cells; both cell types were set to a 3.3 * 10^5 cells/mL dilution in assay DMEM by means of a CASY cell counter device using a 60um capillary. 6 uL of the mixture were dispensed per well (about 1 * 10^3 host-cells and 1 * 10^3 parasites) with a Multidrop Combi dispenser. […] In all wells, the percentage of DMSO never exceeded 0.5%. Plates incubated for four days at 37C, 5% CO2. The substrate used for the assay fluorescence intensity (FLINT) readout was resorufin-beta-D-galactopiranoside (Sigma-Aldrich) at 5uM per well. It was diluted in PBS supplemented with the soft detergent Igepal (Fluka).; type: functional, organism-based, Mus musculus; settings: Tulahuen, NIH3T3
# Trypanosoma cruzi [2] = experiment: (§1) GSK_TCAKS: pIC50 Trypanosoma cruzi Imaging: Infected Cells. […] Cells were then washed once with PBS before infection. T. cruzi trypomastigotes, collected at days 5 to 8 after infection from LLC-MK2 parasite infected cultures, were allowed to swim out for 4h at 37C from a centrifuged pellet (2,500 rpm/10 min/room temperature). Trypomastigotes were then collected and counted in a CASY Cell Counter. Trypomastigotes, in supplemented DMEM, were added to H9c2 cultures in a multiplicity of infection of 1 and incubated for 18 h. Cells were washed once with PBS before incubation of the infected H9c2 monolayer with trypsin (Life-Technologies) to detach cells from the flask. Cells were counted in a CASY Cell Counter using a 150 um capillary and their density set at 5 * 10^4 cells per mL in supplemented assay DMEM. Infected H9c2 were dispensed into 384-well poly-lysine coated assay plates at 50uL per well using a Multidrop Combi dispenser. After seeding them, the plates were incubated at 37C, 5% CO2 for 72h. Cultures were then fixed and stained by addition of 50 uL of a solution containing 8% formaldehyde and 4 uM DRAQ5 DNA dye (BioStatus, UK) per well. […] Five images were collected per well for reliable statistical analysis. Automated image analysis was performed with a script developed on Acapella High Content Imaging and Analysis Software (PerkinElmer). Output: percentage of infected cells per well as a second infection marker.; type: functional, organism-based, Rattus norvegicus; settings: H9c2, 4 h
# Trypanosoma cruzi [3] = experiment: GSK_TCAKS: pIC50 Trypanosoma cruzi Imaging: Amastigotes/Cell. […] Cells were then washed once with PBS before infection. T. cruzi trypomastigotes, collected at days 5 to 8 after infection from LLC-MK2 parasite infected cultures, were allowed to swim out for 4h at 37C from a centrifuged pellet (2,500 rpm/10 min/room temperature). Trypomastigotes were then collected and counted in a CASY Cell Counter. Trypomastigotes, in supplemented DMEM, were added to H9c2 cultures in a multiplicity of infection of 1 and incubated for 18 h. Cells were washed once with PBS before incubation of the infected H9c2 monolayer with trypsin (Life-Technologies) to detach cells from the flask. Cells were counted in a CASY Cell Counter using a 150 um capillary and their density set at 5 * 10^4 cells per mL in supplemented assay DMEM. Infected H9c2 were dispensed into 384-well poly-lysine coated assay plates at 50uL per well using a Multidrop Combi dispenser. After seeding them, the plates were incubated at 37C, 5% CO2 for 72h. Cultures were then fixed and stained by addition of 50 uL of a solution containing 8% formaldehyde and 4 uM DRAQ5 DNA dye (BioStatus, UK) per well. […] Five images were collected per well for reliable statistical analysis. Automated image analysis was performed with a script developed on Acapella High Content Imaging and Analysis Software (PerkinElmer). Output: number of amastigotes per cell as infection level measurement.; type: functional, organism-based, Rattus norvegicus; settings: H9c2, 4 h
# Trypanosoma cruzi [4] = experiment: as §1, with “H2C9” for “Trypanosoma cruzi”, “H9c2 Host Cardiomyocytes.” for “Infected Cells.”, “Number” for “percentage”, “H9c2 Host Cardiomyocytes nuclei to determine drug-related cytotoxicity.” for “infected cells per well as a second infection marker.”; type: functional, organism-based, Rattus norvegicus; settings: H9c2, 4 h
# Leishmania donovani [5] = experiment: GSK_TCAKS: pIC50 Leishmania donovani viability assay using fluorescence intensity. Assay plates (1536-well) were prepared by adding 30nL per well of compound. For single shot assay, the final compound concentration was 5uM. […] Briefly, eGFP LdBOB axenic amastigotes were harvested, fixed and counted in a CASY cell counter (Roche-Applied Science). A final concentration of 1.5 * 10^5 cells per well were prepared in amastigote media containing 500 U/mL penicillin/streptomycin (Invitrogen) and 6uL was dispensed to each experimental well using a Multidrop Combi dispenser (Thermo Scientific). 6uL of assay media was dispensed to control columns used as reference for 100% compound response. Following incubation for 72 h at 37C, 5% CO2, 2 uL of resazurin was added to each well at a final concentration of 0.5 mM in phosphate buffered saline (PBS) with IGEPAL (Sigma-Aldrich), 0.05% (v/v).; type: functional, organism-based
# Leishmania donovani [6] = experiment: (§2) GSK_TCAKS: pIC50 Leishmania donovani Imaging: Infected Macrophages. Assay plates (384-well) were prepared by adding 250nL of compound to each well. For single shot assay, the final compound concentration was 5 uM. […] Automated image analysis was performed with a script developed on Acapella High Content Imaging and Analysis Software (PerkinElmer). Output: Percent of infected macrophage cells were reported for each well.; type: functional, organism-based, Homo sapiens; settings: THP-1
# Leishmania donovani [7] = experiment: as §2, with “Amastigotes/Macrophages.” for “Infected Macrophages.”, “Average number” for “Percent”, “amastigotes per” for “infected”, “cell” for “cells”; type: functional, organism-based, Homo sapiens; settings: THP-1
# Leishmania donovani [8] = experiment: as §2, with “THP-1 Host” for “Infected”, “THP-1 cell count” for “Percent of infected macrophage cells”; type: functional, organism-based, Homo sapiens
# [9] = system: Trypanosoma brucei brucei; experiment: GSK_TCAKS: pIC50 Trypanosoma brucei viability assay using fluorescence intensity. Assay plates (1536-well) were prepared by dispensing 25nL of compound solution per well using an Echo acoustic dispenser (Labcyte).; type: functional, organism-based; settings: Lister 427, 2 h
# [10] = system: Trypanosoma brucei brucei; experiment: GSK_TCAKS: pIC50 Trypanosoma brucei viability assay using luminiscence. Assay plates (1536-well) were prepared. T. brucei cultures were harvested and counted in a CASY cell counter. A parasite suspension was prepared at a final concentration of 5 * 10^4 cells/mL in complete HMI9 medium and 6uL was dispensed to all wells containing compounds using a Multidrop Combi dispenser. 6uL of HMI9 media with 0.4% DMSO were dispensed to control columns. Plates were incubated for 24 h at 37C, 5% CO2 then tempered for 10 min at room temperature. ATP content was quantified by adding 4 uL of CellTiter-Glo Reagent (Promega) according to the manufacturer's instructions. Luminescence was measured using a ViewLux.; type: functional, organism-based; settings: Lister 427, CASY
# [11] = GSK_TCAKS: pIC50 HepG2 human cell line viability assay using luminiscence. […] Seeding density was checked to ensure that new mono-layers were not more than 50% confluent at the time of harvesting. Cell suspension was added to 500 mL of the same medium at a final density of 1.2 * 10^5 cells/mL. This cell suspension was dispensed (25 uL, 3000 cells per well) into 384-well clear-bottom plates using a Multidrop Combi dispenser. Prior to addition of the cell suspension, the screening compounds (250 nL) were pre-dispensed into the plates with an Echo liquid handler. Plates were incubated for 48 h at 37C, 5% CO2. After incubation, plates equilibrated at room temperature for 30 min before proceeding to develop the luminescent signal. The signal developer, CellTiter-Glo Reagent, was allowed to equilibrate at room temperature for 30 min and added to the plates (25uL per well) using a Multidrop Combi dispenser. Plates were left for 10 min at room temperature for stabilization and then read using a ViewLux.; type: toxicity, cell-based
# [12] = target: Sterol 14-alpha demethylase (Trypanosoma cruzi (strain CL Brener), UniProt Q7Z1V1); experiment: GSK_TCAKS: pIC50 CYP51 from Trypanosoma cruzi.; type: functional
# Chain of Sterol 14-alpha demethylase (Q7Z1V1 whole entry): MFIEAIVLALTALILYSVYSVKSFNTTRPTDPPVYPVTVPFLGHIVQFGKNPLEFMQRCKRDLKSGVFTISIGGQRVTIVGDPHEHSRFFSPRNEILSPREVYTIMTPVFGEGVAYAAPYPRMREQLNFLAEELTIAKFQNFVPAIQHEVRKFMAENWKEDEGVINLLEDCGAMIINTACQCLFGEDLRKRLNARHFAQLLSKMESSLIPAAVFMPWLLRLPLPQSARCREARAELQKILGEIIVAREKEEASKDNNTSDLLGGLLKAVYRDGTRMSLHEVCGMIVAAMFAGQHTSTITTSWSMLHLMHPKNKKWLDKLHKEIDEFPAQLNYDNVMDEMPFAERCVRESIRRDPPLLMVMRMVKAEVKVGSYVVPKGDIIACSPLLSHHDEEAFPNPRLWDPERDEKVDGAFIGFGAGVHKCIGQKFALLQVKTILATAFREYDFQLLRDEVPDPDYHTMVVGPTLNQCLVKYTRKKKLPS
SMILES,IC50 (Trypanosoma cruzi [1]) [µM],IC50 (Trypanosoma cruzi [2]) [µM],IC50 (Trypanosoma cruzi [3]) [µM],IC50 (Trypanosoma cruzi [4]) [µM],IC50 (Leishmania donovani [5]) [µM],IC50 (Leishmania donovani [6]) [µM],IC50 (Leishmania donovani [7]) [µM],IC50 (Leishmania donovani [8]) [µM],IC50 [9] [µM],IC50 [10] [µM],IC50 at 48 h [11] [µM],IC50 [12] [µM]
Cc1nn2c(O)c3c(nc2c1-c1ccc(F)cc1)CCCC3,1.58,2,0.794,> 50.1,1.26,> 50.1,> 50.1,> 50.1,0.398,0.631,> 100,> 100
c1ccc(Nc2nc3ccccc3[nH]2)nc1,7.94,25.1,10,10,25.1,7.94,7.94,25.1,15.8,25.1,79.4,> 100
CN(CC1CCCO1)S(=O)(=O)c1ccc(C(=O)Nc2nc(-c3ccccn3)cs2)cc1 (stereo unspecified),1.58,2,1.26,20,1.26,6.31,3.16,7.94,0.501,0.631,63.1,7.94
CC(C)(C)Nc1nc(-c2ccccn2)nc2ccccc12,1.26,2,1.26,0.316,6.31,1.58,1.26,15.8,6.31,6.31,20,> 100
Cc1cccc(Nc2nc(-c3ccccn3)cs2)n1,0.631,1,0.794,0.631,3.98,3.16,2,> 50.1,1,0.501,39.8,20
COc1ccc(Nc2nc(-c3ccccn3)cs2)c(OC)c1,3.98,7.94,5.01,2,6.31,2.51,2,> 50.1,20,25.1,> 100,20
O=C1COC(c2ccccc2)(c2ccccc2)CN1C1CCN(Cc2ccc(-n3ccnc3)cc2)CC1,1.58,2,0.501,31.6,31.6,15.8,12.6,15.8,0.794,1,50.1,0.0794
CC(=O)Nc1ccc(CN2CCC(N3CC(c4ccccc4)(c4ccccc4)OCC3=O)CC2)cc1,12.6,31.6,20,> 50.1,0.501,25.1,20,39.8,0.316,0.398,79.4,> 100
